We go through two molecules from patent US20240156767A1, “SCREENING METHOD FOR GLP-1 SECRETION REGULATION AGENT, GLP-1 SECRETION REGULATION AGENT, COMPOSITION FOR PREVENTING OR AMELIORATING DIABETES, OBESITY, POSTPRANDIAL HYPERGLYCEMIA, NEURODEGENERATIVE DISEASE, HYPOGLYCEMIA, ADIPOSITY, OR NESIDIOBLASTOSIS, METHOD FOR PROMOTING SECRETION OF GLP-1 IN …” (The Nisshin OilliO Group, Ltd., priority 2021, published 2024).

Structures are written as SMILES.

In one assay the test system is GPR84 knockout mice. Briefly: Same test as Test 2 (glucose tolerance, plasma insulin) using GPR84 knockout mice, data not shown. The conditions noted are these: effect lower than with wild-type mice. It counts as in vivo. The text has this: However, the increasing effect was lower than with wild-type mice. […] It was inferred that the total insulin secretion was reduced compared with that of wild-type mice.

Another assay has as its system STC-1 cells. Briefly: Cell culture test: GLP-1 secretion from enteroendocrine STC-1 cells (ELISA). It is filed as cell-based. The conditions noted are these: for GLP-1 CONCENTRATION: 30 minutes after sample, mean±standard error; for Effect on GLP-1 secretion from STC-1 cells (in words): 0.01-1.0 mM. As to the method: By carrying out a cell culture test (in vitro test) by the following method, and administering various medium chain fatty acids (capric acid or lauric acid, both are a free form) to enteroendocrine cells (STC-1 cells), an effect of each medium chain fatty acid on GLP-1 secretion was examined. The above medium chain fatty acids correspond to GPR84 agonists. To the same dimethyl sulfoxide (1 ml) as in the (1-1) above, 172 mg of capric acid (trade name “Decanoic Acid <Capric Acid>”, manufactured by New Check Prep) was added to obtain 1000 mM of capric acid samples. A 1000 mM capric acid sample (0.1 ml) was added to dimethylsulfoxide (0.9 ml) to obtain a 100 mM capric acid sample. A 100 mM capric acid sample (0.1 ml) was added to dimethylsulfoxide (0.9 ml) to obtain a 10 mM capric acid sample. Note here that when capric acid was added to dimethylsulfoxide, a mixture was mixed while heating to prepare a sample having a uniform capric acid concentration. To the same dimethylsulfoxide (1 ml) as in the (1-1) above, 200 mg of lauric acid (trade name “Dodecanoic Acid <Lauric Acid>”, manufactured by New Check Prep) was added to obtain 1000 mM of lauric acid sample. A 1000 mM lauric acid sample (0.1 ml) was added to dimethylsulfoxide (0.9 ml) to obtain a 100 mM lauric acid sample. A 100 mM lauric acid sample (0.1 ml) was added to dimethylsulfoxide (0.9 ml) to obtain a 10 mM lauric acid sample. Note here that when lauric acid was added to dimethyl sulfoxide, the mixture was mixed while heating to prepare a sample having a uniform lauric acid concentration. STC-1 cells (trade name “STC-1”, manufactured by American Type Culture Collection) were cultured in a medium at 37° C. in 5% CO2 for 48 hours to obtain STC-1 cells for testing. Note here that as the medium, a DMEM medium (trade name “Dulbecco's Modified Eagle Medium (High Glucose)”, manufactured by Sigma-Aldrich) including 15% horse serum (trade name “Horse Serum, New Zealand origin”, manufactured by Gibco) and 5% fetal bovine serum (trade name “Fetal Bovine Serum (FBS) Standard, Origin South America”, manufactured by Cosmo Bio) was used. The culture medium for STC-1 cells was replaced with a serum-free medium (300 μl/well), starvation was carried out for 30 minutes, then the serum-free medium was replaced with a new serum-free medium (300 μl/well), and 0.3 μl each of any one of samples was added to each well. Thirty minutes after administration of the sample, the medium was collected and mixed in a 1.5 ml tube in which 3 μL of DPP4 inhibitor (trade name “DPP IV Inhibitor”, manufactured by Sigma-Aldrich) had been placed in advance. Then, each tube was centrifuged at 4° C. at 1,000×g for 5 minutes, and the supernatant was collected in a new 1.5 ml tube. GLP-1 concentration (nM) in the collected supernatant was measured. Note here that the GLP-1 concentration was measured by ELISA method using a commercially available kit (trade name “Glucagon Like Peptide-1 (Active) ELISA”, manufactured by Sigma-Aldrich). In the data of FIG. 1 and Table 1, the measured values of GLP-1 concentration are expressed as “mean±standard error”. Dunnet's test was used to test significant differences between trials, and significant differences were determined to exist when the risk rate was less than 5% (*p<0.05). Also, the sample concentrations in FIG. 1 and Table 1 indicate the concentrations in the medium in the cell culture test.
On the technique in general: An ELISA detects its analyte on a solid surface through an enzyme-linked reagent.

Consider `CCCCCCCCCC(=O)O` [Capric acid, capric acid (n-decanoic acid)], for which the “Effect on plasma insulin concentration (in words)” value in the assay on GPR84 knockout mice is recorded as “increased the plasma insulin concentration”. Further, the “GLP-1 CONCENTRATION” value with STC-1 cells (0.01 mM in medium) is reported as 1.235 ± 0.120 nM; with STC-1 cells (0.1 mM in medium), 1.517 ± 0.005 nM; with STC-1 cells (1.0 mM in medium), 4.629 ± 0.087 * nM. The “Effect on GLP-1 secretion from STC-1 cells (in words)” value in the assay with STC-1 cells was “promoted GLP-1 secretion”.
On to `CCCCCCCCCCCC(=O)O` [Lauric acid, lauric acid], for which, in the assay on GPR84 knockout mice, the “Effect on plasma insulin concentration (in words)” value is “increased the plasma insulin concentration”. Moreover, the results for the “GLP-1 CONCENTRATION” value in the assay on STC-1 cells (0.01 mM in medium), with STC-1 cells (0.1 mM in medium) and with STC-1 cells (1.0 mM in medium) were 1.827 ± 0.060 * nM, 3.915 ± 0.197 * nM and 4.268 ± 0.084 * nM, respectively. Moreover, the “Effect on GLP-1 secretion from STC-1 cells (in words)” value with STC-1 cells is “promoted GLP-1 secretion”.
